Here are results for 2 compounds from patent US20260063623A1, “METHODS OF ASSESSING METABOLIC FLUX” (The Regents of the University of Michigan, priority 2022, published 2026).

Read-outs that look alike come from different tables or passages of the source. Where only a bound is given, the exact number is not on record here.

Data set [1] deals with de novo GMP synthesis (IMPDH). In words: Machine learning prediction of de novo GMP synthesis ratio in MMF treated vs control GBM PDXs infused with U13C glucose. Format: in vivo. As to conditions: MMF treated GBM PDX mice vs control PDXs, from measured enrichment patterns. From the text:
To generate data used for flux modeling, patient-derived xenografts (PDXs) from human glioblastomas are implanted into the brains of immunodeficient mice. PDXs are transduced with luciferase and EGFP prior for imaging and physical separation from brain tissue, respectively. Once brain tumors are established, mice are cannulated for infusions, treatments, and blood sampling. One catheter is surgically placed into the jugular vein of anesthetized recipient mice, and a second line is placed into the carotid artery. In experiments in which mice are to receive oral administration of MMF or vehicle, a third catheter is directed to the stomach. […] Brain tumors are separated from healthy brain tissue by fluorescence-guided microdissection. […] Small molecules from solid tissues and plasma are extracted and samples are analyzed by liquid chromatography-mass spectrometry (LC-MS) to identify the metabolites and their labeling patterns (FIG. 1A).
To train machine learning models that can predict the ratio of de novo synthesis of GMP to the overall GMP synthesis, simulated MIDs were used as input features. […] A machine learning model with a good evaluation score on a test dataset should be also evaluated on some experimental value for further validation. […] By measuring the MIDs in these two groups, the de novo GMP ratio can be calculated using the INST-MFA method and compared to machine learning results. […]

Data set [2] has as its system inosine monophosphate dehydrogenase (IMPDH). The note with it: mice models, combined with radiation; cited from earlier work.
For data set [3] the following is noted: human, in vivo. The protocol: Eight patients with suspected GBM were recruited to the IRB-approved clinical study, which was performed perioperatively with standard-of-care craniotomies. Near the start of each procedure (approximately 2-4 hours prior to tissue resection), patients received a bolus intravenous dose of [U^13C]-glucose (8 g) followed by a continuous intravenous infusion of [U^13C]-glucose at a rate of 4 g/h. Arterial blood was collected into EDTA-coated vials every 30-60 min for plasma preparation and analysis until solid tissues of interest were harvested from each patient. […]
(§1) Flash-frozen tissue samples were homogenized in cold (−80° C.) 80% methanol. […] Isotope labeling was determined using an Agilent system consisting of an Infinity Lab II UPLC coupled with a 6545 QTOF mass spectrometer (Agilent Technologies, Santa Clara, CA), and data were analyzed with values corrected for natural isotope abundance using MassHunter Profinder 10.0. […] To determine relative metabolite abundances in tissues and plasma from control or Ser/Gly (−) diet fed mice, samples were prepared as described above and then analyzed with an Agilent 1290 Infinity II LC-6470 Triple Quadrupole tandem mass spectrometer system (Agilent Technologies, Santa Clara, CA). For compound optimization, calibration, and data acquisition, Agilent MassHunter Quantitative Analysis Software version B.08.02 was used.

On the set-up of data set [4]: species or system mice. As to conditions: mouse, in vivo.
Source text: At approximately 1-2 weeks before expected death related to brain tumors (˜3 weeks post-implant), intracranial GBM-bearing mice underwent dual catheterizations, with one catheter surgically placed into the jugular vein (for [U^13C]-glucose administration) and a second catheter placed into the carotid artery (for plasma collection during infusion). Mice were then allowed to recover from surgery for 4-5 days. In studies assessing the influence of RT on metabolism, cannulated mice were anesthetized by 2% isoflurane inhalation and then treated with cranially directed RT at a dose of 8 Gy or sham RT with a lead shield keeping the cranium […]. […]
as §1, with “For compound optimization, calibration, and data acquisition, Agilent MassHunter Quantitative Analysis Software version B.08.02 was used.” left out

As for `COc1c(C)c2c(c(O)c1C/C=C(\C)CCC(=O)OCCN1CCOCC1)C(=O)OC2` [MMF, mycophenolate mofetil], the “de novo GMP synthesis ratio (de novo to overall GMP synthesis) predicted by machine learning model” value in data set [1] is reported as “lower de novo GMP synthesis ratio”. Further, the radiation outcomes in data set [2] is listed as “improves radiation outcomes”.
In the case of [U^13C]-glucose, the results for the “time to arterial steady state of labeled glucose” value in data set [3] and in data set [4] were “approximately 30 minutes” and not above 30 min, respectively.
